From patent publication US5968980A, “1,3-dialkylurea derivative” (Santen Pharmaceutical Co., Ltd., priority 1994, dated 1999) come the findings set out here.

The target in this assay is T1, endopeptidase 24.11 (Rattus norvegicus, UniProt P07861).
T1 construct: A kidney was excised from a Wistar rat; from tissue; host or cells: Wistar rat kidney, crude membrane pellet suspended in HEPES buffer
T1 sequence (P07861 1-750): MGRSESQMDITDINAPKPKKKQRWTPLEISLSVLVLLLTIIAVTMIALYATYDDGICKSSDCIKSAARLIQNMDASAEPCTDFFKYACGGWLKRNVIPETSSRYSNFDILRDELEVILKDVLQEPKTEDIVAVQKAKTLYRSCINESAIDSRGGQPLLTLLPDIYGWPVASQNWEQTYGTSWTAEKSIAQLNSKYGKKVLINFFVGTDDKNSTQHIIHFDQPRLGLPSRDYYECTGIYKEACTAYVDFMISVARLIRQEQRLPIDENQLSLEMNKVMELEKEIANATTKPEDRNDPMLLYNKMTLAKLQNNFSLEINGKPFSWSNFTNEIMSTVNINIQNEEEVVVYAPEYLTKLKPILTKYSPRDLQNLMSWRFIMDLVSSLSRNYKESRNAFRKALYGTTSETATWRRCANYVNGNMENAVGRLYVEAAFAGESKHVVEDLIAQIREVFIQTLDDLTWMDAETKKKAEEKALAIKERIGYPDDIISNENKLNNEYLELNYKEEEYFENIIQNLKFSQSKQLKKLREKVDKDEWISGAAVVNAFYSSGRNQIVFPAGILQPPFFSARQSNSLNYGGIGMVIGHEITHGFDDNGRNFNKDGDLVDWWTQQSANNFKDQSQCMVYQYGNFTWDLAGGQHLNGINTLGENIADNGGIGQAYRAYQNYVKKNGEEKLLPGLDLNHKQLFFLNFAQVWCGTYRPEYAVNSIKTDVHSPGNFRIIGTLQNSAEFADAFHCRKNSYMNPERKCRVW
Description: inhibition of endopeptidase 24.11 activity (DAGNPG cleavage, fluorescence, rat kidney enzyme preparation). The following applies: DAGNPG 50 μM, 37° C., 30 minutes, pH 7.4, rat kidney enzyme preparation; read-out: IC50 (concentration required to inhibit endopeptidase 24.11 by 50%). In kind it is biochemical. The text has this:
As a method for measuring endopeptidase 24.11 activity, Florentin et al. had reported a method for measuring the enzyme activity by a degree of cleavage of a peptide bond between glycine and p-nitrophenylalanine using N-dansyl-D-alanyl-glycyl-p-nitrophenylalanyl-glycine (DAGNPG) as a substrate (Anal. Biochem., 141, 62-69 (1984)). An effect of the present compounds on endopeptidase 24.11 was examined according to the method described in the literature.
An enzyme preparation used in this pharmacological test was prepared by extracting from a rat kidney by the following method according to the method of Malfloy et al. (J. Biol. Chem., 259, 14365-14370 (1984)).
A kidney was excised from a Wistar rat. The kidney was homogenized in Tris-hydrochloric acid buffer (5 mM, pH 7.4, containing 125 mM D-mannitol and 12 mM magnesium chloride). The homogenate was centrifuged at low speed (1,000×g) to give a supernatant. The supernatant was ultracentrifuged ([…]) for 120 minutes. The resulting pellet was suspended in Tris-hydrochloric acid buffer (2.5 mM, pH 7.4, containing 62.5 mM D-mannitol and 6 mM magnesium chloride). The suspension was centrifuged at low speed and then ultracentrifuged again. The resulting pellet was suspended in HEPES buffer (5 mM, pH 7.4) to give the enzyme preparation.
In order to examine the effect of the present compounds on the enzyme preparation, reactions were performed under the following condition using mixed solutions consisting of the composition shown in Table 1.
Enzyme preparation 0.3-0.5 μg protein
The above-mentioned solution (150 μl) was incubated at 37° C. for 30 minutes and then boiled at 100° C. for five minutes. To the solution was added 1.35 ml of Tris-hydrochloric acid buffer (50 mM, pH 7.4). The mixture was centrifuged at moderate speed (5,000×g) for five minutes to give a supernatant. Fluorescence intensity of the supernatant (excitation at 342 nm of wave length and emission at 562 nm) was measured.
The degree of the inhibitory effect of each test compound on the enzyme preparation is expressed by the inhibition rate calculated by the following equation. [formula]
A: fluorescence intensity of the sample in the absence of the test compound
B: fluorescence intensity of the sample in the presence of the test compound

For `CC(C)CN(CC(CCc1ccccc1)C(=O)O)C(=O)N[C@@H](Cc1ccc(-c2ccccc2)cc1)C(=O)O` (mixture of isomers) [Compound No. 5-6, (2S)-3-(4-Biphenylyl)-2-[3-[(2RS)-2-carboxy-4-phenylbutyl]-3-isobutylureido]propionic acid], the IC50 is 0.55 nM.
The figure for `CC(C)CCC(CN(CC(C)C)C(=O)N[C@@H](Cc1ccc(-c2ccccc2)cc1)C(=O)O)C(=O)O` (mixture of isomers) [Compound No. 7-3, (2S)-3-(4-Biphenylyl)-2-[3-[(2RS)-2-carboxy-5-methylhexyl]-3-isobutylureido]propionic acid] is 4 nM.
Next, `CC(C)CN(CC(CCc1ccccc1)C(=O)O)C(=O)N[C@@H](Cc1ccc2ccccc2c1)C(=O)O` (mixture of isomers) [Compound No. 7-6, (2S)-2-[3-[(2RS)-2-Carboxy-4-phenylbutyl]-3-isobutylureido]-3-(2-naphthyl)propionic acid]: 3.1 nM.
For `CC(C)CN(CC(OCc1ccccc1)C(=O)O)C(=O)N[C@@H](Cc1ccc(-c2ccccc2)cc1)C(=O)O` (single isomer, unassigned) [Compound No. 8-1, (2S)-2-[3-[(2S or 2R)-2-Benzyloxy-2-carboxyethyl]-3-isobutylureido]-3-(4-biphenylyl)propionic acid], the IC50 came to 0.93 nM.
The figure for `CC(C)CN(CC(CCc1ccccc1)C(=O)O)C(=O)N[C@@H](Cc1ccc(-c2ccccc2)cc1)C(=O)O` (single isomer, unassigned) [Compound No. 9-1, (2S)-3-(4-Biphenylyl)-2-[3-[(2S or 2R)-2-carboxy-4-phenylbutyl]-3-isobutylureido]propionic acid] is 0.58 nM; for `CC(C)CN(CC(CCc1ccccc1)C(=O)NO)C(=O)N[C@@H](Cc1ccc(-c2ccccc2)cc1)C(=O)O` (single isomer, unassigned) [Compound No. 10-1, (2S)-3-(4-Biphenylyl)-2-[3-[(2S or 2R)-2-hydroxycarbamoyl-4-phenylbutyl]-3-isobutylureido]propionic acid] it is 2.1 nM.
The figure for `CC(C)CN(CCC(=O)O)C(=O)N[C@@H](Cc1ccc(-c2ccccc2)cc1)C(=O)O` [Compound No. 5-1, (2S)-3-(4-Biphenylyl)-2-[3-(2-carboxyethyl)-3-isobutylureido]propionic acid] is 1.3 nM; for `CC(C)CN(CCC(=O)O)C(=O)N[C@@H](Cc1ccc2ccccc2c1)C(=O)O` [Compound No. 5-21, (2S)-2-[3-(2-Carboxyethyl)-3-isobutylureido]-3-(2-naphthyl)propionic acid] it is 9.3 nM.
